Like-named read-outs stand apart in the source and are kept apart here.
Columns and labels:
[1] = tested on: CPT-K5; assay: MTT-microtiter plate tetrazolinium cytotoxicity assay (Test B), camptothecin-resistant variant; assay type: cell-based; conditions: Homo sapiens
Description: (§1) Test B. Inhibition of Cell Growth: MTT-Microtiter Plate Tetrazolinium Cytotoxicity Assay (RPMI 8402, CPT-K5, U937, U937/CR Cells)
(§2) The cytotoxicity is determined using the MTT-microtiter plate tetrazolinium cytotoxicity assay (MTA), see Chen A. Y. et al. Cancer Res. 1993, 53, 1332; Mosmann, T. J., J. Immunol. Methods 1983, 65, 55; and Carmichael, J. et al. Cancer Res. 1987, 47, 936. The human lymphoblast RPMI 8402 and its camptothecin-resistant variant cell line, CPT-K5 were provided by Dr. Toshiwo Andoh (Anchi Cancer Research Institute, Nagoya, Japan), see Andoh, T.; Okada, K, Adv. in Pharmacology 1994, 29B, 93. Human U-937 myeloid leukemia cells and U-937/CR cells were described by Rubin et al., J. Biol. Chem., 1994, 269, 2433-2439. The cytotoxicity assay is performed by using 96-well microtiter plates using 2000 cells/well, in […] of growth medium. Cells are grown in suspension at 37° C. in 5% CO2 and maintained by regular passage in RPMI medium supplemented with 10% heat-inactivated fetal bovine serum, L-glutamine (2 mM), penicillin (100 U/mL), and streptomycin (0.1 mg/mL). For determination of IC50, cells are exposed continuously for 3-4 days to varying concentrations of drug, and MTT assays were performed at the end of the fourth day. […] All assays are performed at least twice in 6 replicate wells. All assays are performed under the direction of Dr. L. F. Liu, Department of Pharmacology, The University of Medicine and Dentistry of New Jersey, Robert Wood Johnson Medical School, Piscataway, N.J.

[2] = tested on: RPMI 8402; assay: MTT-microtiter plate tetrazolinium cytotoxicity assay (Test B); assay type: cell-based, human
Description: as §1, §2

[3] = camptothecin-resistant variant cell line CPT-K5, continuous exposure 3-4 days, MTT, read-out: CPT-K5 IC50 values
[4] = human lymphoblast RPMI 8402 cells, continuous exposure 3-4 days, MTT, read-out: RPMI 8402 [μM] IC50 values

Row | melting point | Compound | further results
1 | 300 to 303 °C (dec.) | COc1cc2c(=O)n(CC3CCCO3)c3c4cc5c(cc4nnc3c2cc1OC)OCO5 (stereo not drawn) [Example 4, 2,3-Dimethoxy-8,9-methylenedioxy-11-(2-tetrahydrofuranyl)methyl-11H-5,6,11-triazachrysen-12-one] | –
2 | 229 °C | COc1cc2c(=O)n(CCN3CCCC3)c3c4cc5c(cc4nnc3c2cc1OC)OCO5 [Example 5, 2,3-Dimethoxy-8,9-methylenedioxy-11-[2-(pyrrolidin-1-yl)ethyl]-11H-5,6,11-triaza-chrysen-12-one] | –
3 | 294 to 295 °C | COc1cc2c(=O)n(CCN3CCCCC3)c3c4cc5c(cc4nnc3c2cc1OC)OCO5 [Example 6, 2,3-Dimethoxy-8,9-methylenedioxy-11-[2-(piperidin-1-yl)ethyl]-11H-5,6,11-triaza-chrysen-12-one] | –
4 | 244 to 246 °C | COc1cc2c(=O)n(CCN3CCN(C)CC3)c3c4cc5c(cc4ncc3c2cc1OC)OCO5 [Example 10, 8,9-Dimethoxy-2,3-methylenedioxy-5-[2-(4-methylpiperazin-1-yl)ethyl]-5H-dibenzo[c,h]1,6-naphthyridin-6-one] | –
5 | 262 to 264 °C (dec.) | COc1cc2c(=O)n(CCCN(C)C)c3c4cc5c(cc4ncc3c2cc1OC)OCO5 [Example 11, 8,9-Dimethoxy-2,3-methylenedioxy-5-[3-(N,N-dimethylamino)propyl]-5H-dibenzo[c,h]1,6-naphthyridin-6-one] | –
6 | 285 to 286 °C | COc1cc2c(=O)n(CCO)c3c4cc5c(cc4ncc3c2cc1OC)OCO5 [Example 13, 8,9-Dimethoxy-2,3-methylenedioxy-5-[2-(hydroxy)ethyl]-5H-dibenzo[c,h]1,6-naphthyridin-6-one] | –
7 | 235 °C | COc1cc2c(=O)n(CCOCCO)c3c4cc5c(cc4ncc3c2cc1OC)OCO5 [Example 14, 8,9-Dimethoxy-2,3-methylenedioxy-5-[2-(2-hydroxyethoxy)ethyl]-5H-dibenzo[c,h]1,6-naphthyridin-6-one] | –
8 | 271 to 273 °C (dec.) | COc1cc2c(cc1OC)-c1cnc3cc4c(cc3c1N(CCN(C)C)C2)OCO4 [Example 17, 8,9-Dimethoxy-2,3-methylenedioxy-5-[2-(N,N-dimethylamino)ethyl]-5,6-dihydro-dibenzo[c,h]1,6-naphthyridine] | –

Further lines, the molecule ahead of its results:

Row | Compound | melting point | further results
9 | CC[C@@]1(O)C(=O)OCc2c1cc1n(c2=O)Cc2cc3ccccc3nc2-1 [Camptothecin] | – | IC50 ([1]; CPT-K5, read-out: CPT-K5 IC50 values): 4500 nM; IC50 ([2]; Homo sapiens, RPMI 8402, read-out: RPMI 8402 [μM] IC50 values): 0.002 µM
10 | COc1cc2c(=O)n(CCN(C)C)c3c4cc5c(cc4nnc3c2cc1OC)OCO5 [Compound 5, 11,12-dihydro-2,3-dimethoxy-8,9-methylenedioxy-11-[2-(dimethylamino)ethyl]-5,6,11-triazachrysen-12-one] | – | IC50 [1, 3]: 1200 nM; IC50 [2, 4]: 0.003 µM
11 | COc1cc2c(=O)n(C(C)CN(C)C)c3c4cc5c(cc4ncc3c2cc1OC)OCO5 (stereo not drawn) [Example 8, 8,9-Dimethoxy-2,3-methylenedioxy-5-[2-(N,N-dimethylamino)-1-methylethyl]-5H-dibenzo[c,h]1,6-naphthyridin-6-one] | 186 to 187 °C | –
12 | COc1cc2c(=O)n(CCN3CCCC3)c3c4cc5c(cc4ncc3c2cc1OC)OCO5 [Example 9, 8,9-Dimethoxy-2,3-methylenedioxy-5-[2-(pyrrolidin-1-yl)ethyl]-5H-dibenzo[c,h]1,6-naphthyridin-6-one] | 255 to 257 °C (dec.) | –
13 | COc1cc2c(=O)n(CC3CCCO3)c3c4cc5c(cc4ncc3c2cc1OC)OCO5 (stereo not drawn) [Example 12, 8,9-Dimethoxy-2,3-methylenedioxy-5-(2-tetrahydrofuranyl)methyl-5H-dibenzo[c,h]1,6-naphthyridin-6-one] | 270 to 273 °C | –
14 | COc1cc2c(cc1OC)-c1cnc3cc4c(cc3c1N(C(C)CN(C)C)C2)OCO4 (stereo not drawn) [Example 18, 8,9-Dimethoxy-2,3-methylenedioxy-5-[2-(N,N-dimethylamino)-1-methylethyl]-5,6-dihydro-dibenzo[c,h]1,6-naphthyridine] | 153 to 154 °C | –
15 | CCN(CC)CCn1c(=O)c2cc(OC)c(OC)cc2c2cnc3cc4c(cc3c21)OCO4 [Example 19, 8,9-Dimethoxy-2,3-methylenedioxy-5-[2-(N,N-diethylamino)ethyl]-5H-dibenzo[c,h]1,6-naphthyridin-6-one] | 221 to 223 °C (dec.) | –
16 | CCc1c2c(nc3ccc(OC(=O)N4CCC(N5CCCCC5)CC4)cc13)-c1cc3c(c(=O)n1C2)COC(=O)[C@]3(O)CC [Irinotecan] | – | IC50 [1, 3]: > 100000 nM; IC50 [2, 4]: 0.57 µM
17 | CC[C@@]1(O)C(=O)OCc2c1cc1n(c2=O)Cc2cc3c(CN(C)C)c(O)ccc3nc2-1 [Topotecan] | – | IC50 [1, 3]: > 10000 nM; IC50 [2, 4]: 0.005 µM

Source: patent US8389721B2, “Solubilized topoisomerase poisons” (Rutgers, The State University of New Jersey, priority 2001, dated 2013)
